Patent US20220274979A1 (Bayer Pharma Aktiengesellschaft, priority 2018, published 2022)

Each compound was assayed against T1, hSOS1 (hSOS1-mediated loading of hK-RasG12C-GDP) (Homo sapiens, UniProt Q07889) (assay: Biochemical Assay 3: hK-RasG12C activation assay by hSOS1 (loading with fluorescent GTP analog, HTRF)). Settings: no GTP.
T1 construct: hSOS1 (amino acid 564-1049); made in house; host or cells: E. coli BL21 (DE3)
T1 sequence (Q07889 with tags, fused parts or gaps): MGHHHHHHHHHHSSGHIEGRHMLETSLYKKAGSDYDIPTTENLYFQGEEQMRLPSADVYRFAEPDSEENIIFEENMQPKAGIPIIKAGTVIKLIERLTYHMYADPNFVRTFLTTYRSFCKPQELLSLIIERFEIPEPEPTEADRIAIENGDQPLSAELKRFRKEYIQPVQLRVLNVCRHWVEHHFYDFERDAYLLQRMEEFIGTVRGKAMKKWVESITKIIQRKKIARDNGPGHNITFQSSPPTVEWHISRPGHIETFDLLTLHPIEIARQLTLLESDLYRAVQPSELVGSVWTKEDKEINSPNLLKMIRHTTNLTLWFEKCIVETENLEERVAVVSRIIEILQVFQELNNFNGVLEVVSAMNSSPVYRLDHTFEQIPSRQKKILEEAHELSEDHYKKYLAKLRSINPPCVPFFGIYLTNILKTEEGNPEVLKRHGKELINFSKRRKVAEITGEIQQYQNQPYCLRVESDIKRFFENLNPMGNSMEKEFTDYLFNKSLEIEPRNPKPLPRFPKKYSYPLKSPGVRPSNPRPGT
From the text: Biochemical Assay 3: hK-RasG12C Activation Assay by hSOS1
K-Ras is a small GTPase that can bind GDP and GTP. The guanine nucleotide exchange factor SOS1 catalyzes the activation of K-Ras by promoting the exchange of GDP to GTP. SOS1 binds to K-Ras-GDP thereby opening the GDP-binding pocket to facilitate GDP release. Rebinding of excess nucleotide leads to dissociation of the K-Ras-SOS1 intermediate complex leaving K-Ras loaded with the nucleotide.
This assay quantifies human SOS1-(hSOS1-)mediated loading of human K-Ras^G12C-GDP (hK-RasG12C-GDP) with a fluorescent GTP-analog. Detection of successful loading is achieved by measuring homogenous time-resolved fluorescence resonance energy transfer (HTRF) from antiGST-Terbium (FRET donor) bound to GST-hK-RasG12C (see below) to the loaded fluorescent GTP analog (FRET-acceptor).
The fluorescent GTP-analog EDA-GTP-Dy647P1 (2′/3′-O-(2-Aminoethyl-carbamoyl)-guanosine-5′-triphosphate labelled with Dy647P1 (Dyomics GmbH, Germany)) was synthesized by Jena Biosciences GmbH (Germany) and supplied as a 1 mM aqueous solution.
The assay buffer contained 10 mM HEPES pH 7.4 (Applichem), 150 mM NaCl (Sigma), 5 mM MgCl2 (Sigma), 1 mM DTT (Thermofisher), 0.05% BSA Fraction V, pH 7.0, (ICN Biomedicals), 0.0025% (v/v) Igepal (Sigma).
Concentrations of protein batches used were optimized to be within the linear range of the HTRF signal. A hRas working solution was prepared in assay buffer containing typically 100 nM GST-hK-RasG12C and 2 nM antiGST-Tb (Cisbio, France). A hSOS1 working solution was prepared in assay buffer containing typically 20 nM hSOS1 and 200 nM EDA-GTP-Dy647P1. An inhibitor control solution was prepared in assay buffer containing 200 nM EDA-GTP-Dy647P1 without hSOS1.
Fifty nl of a 100-fold concentrated solution of the test compound in DMSO were transferred into a black microtiter test plate (384 or 1536, Greiner Bio-One, Germany) For this, either a Hummingbird liquid handler (Digilab, Mass., USA) or an Echo acoustic system (Labcyte, Calif., USA) was used.
All steps of the assay were performed at 20° C. A volume of 2.5 μl of the hRas working solution was added to all wells of the test plate using a Multidrop dispenser (Thermo Labsystems). After 10 min. preincubation, 2.5 μl of the hSOS1 working solution were added to all wells except for those wells at the side of the test plate that were subsequently filled with 2.5 μl of the inhibitor control solution. After […] incubation the fluorescence was measured with a Pherastar (BMG, Germany) using the HTRF module (excitation 337 nm, emission 1: 620 nm, emission 2:665 nm).
IC50 values were calculated by 4-Parameter fitting using a commercial software package (Genedata Screener, Switzerland).

| Compound | IC50 [nM] |
| --- | --- |
| Cc1nc(NC(C)c2ccc(-c3ccccc3CN(C)C)s2)c2cc(OC3CCS(=O)(=O)CC3)ncc2n1 (stereo not drawn) [Example 67, N-[1-(5-{2-[(dimethylamino)methyl]phenyl}thiophen-2-yl)ethyl]-6-[(1,1-dioxidotetrahydro-2H-thiopyran-4-yl)oxy]-2-methylpyrido[3,4-d]pyrimidin-4-amine] | 63.3 |
| Cc1nc(N[C@H](C)c2cccc(Br)c2)c2nc(Oc3ccccc3)ncc2n1 [Example 25, N-[(1R)-1-(3-bromophenyl)ethyl]-2-methyl-6-phenoxypyrimido[5,4-d]pyrimidin-4-amine] | > 20000 |
| Cc1nc(NC(C)c2ccc(-c3ccccc3CN(C)C)s2)c2cc(N3CCC3)ncc2n1 (stereo not drawn) [Example 71, 6-(azetidin-1-yl)-N-[1-(5-{2-[(dimethylamino)methyl]phenyl}thiophen-2-yl)ethyl]-2-methylpyrido[3,4-d]pyrimidin-4-amine] | 82.5 |
| CCOc1cc2c(N[C@H](C)c3ccc(C#N)cc3)nc(C)nc2cn1 [Example 18, 4-{(1R)-1-[(6-ethoxy-2-methylpyrido[3,4-d]pyrimidin-4-yl)amino]ethyl}benzonitrile] | 4540 |
| CCOc1cc2c(N[C@H](C)c3ccc(Br)cc3)nc(C)nc2cn1 [Example 13, N-[(1R)-1-(4-bromophenyl)ethyl]-6-ethoxy-2-methylpyrido[3,4-d]pyrimidin-4-amine] | 7980 |
| Cc1nc(N[C@H](C)c2cccc(Br)c2)c2nc(N3CCOCC3)ccc2n1 [Example 27, N-[(1R)-1-(3-bromophenyl)ethyl]-2-methyl-6-(morpholin-4-yl)pyrido[3,2-d]pyrimidin-4-amine] | 10600 |
| Cc1nc(NC(C)c2ccc(-c3ccccc3CN(C)C)s2)c2cc(N3CC(NC(=O)c4ccccc4)C3)ncc2n1 (stereo not drawn) [Example 88, N-[1-(4-{[1-(5-{2-[(dimethylamino)methyl]phenyl}thiophen-2-yl)ethyl]amino}-2-methylpyrido[3,4-d]pyrimidin-6-yl)azetidin-3-yl]benzamide] | 173 |
| Cc1nc(N[C@H](C)c2ccc(F)cc2)c2cc(OCC3CCOCC3)ncc2n1 [Example 11, N-[1R)-1-(4-fluorophenypethyl]-2-methyl-6-(tetrahydro-2H-pyran-4-ylmethoxy)-pyrido[3,4-d]pyrimidin-4-amine] | 2490 |
| Cc1nc(N[C@H](C)c2ccc(F)cc2)c2cc(F)ncc2n1 [Example 9] | > 20000 |
| Cc1nc(NC(C)c2ccc(-c3ccccc3CN(C)C)s2)c2cc(N3CC(N)C3)ncc2n1 (stereo not drawn) [Example 93, 6-(3-aminoazetidin-1-yl)-N-[1-(5-{2-[(dimethylamino)methyl]phenyl}thiophen-2-yl)ethyl]-2-methylpyrido[3,4-d]pyrimidin-4-amine] | 82.9 |
| Cc1nc(N[C@H](C)c2cccc(Br)c2)c2cc(N3CCNC(=O)C3)ncc2n1 [Example 45] | 459 |
| COc1cc2c(NC(C)c3ccc(-c4ccccc4CN(C)C)s3)nc(C)nc2cn1 (stereo not drawn) [Example 64, N-[1-(5-{2-[(dimethylamino)methyl]phenyl}thiophen-2-yl)ethyl]-6-methoxy-2-methylpyrido[3,4-d]pyrimidin-4-amine] | 80.3 |
| COCCOc1ccc2nc(C)nc(N[C@H](C)c3cccc(Br)c3)c2n1 [Example 30, N-[(1R)-1-(3-bromophenyl)ethyl]-6-(2-methoxyethoxy)-2-methylpyrido[3,2-d]pyrimidin-4-amine] | ≥ 27800 |
| Cc1nc(NC(C)c2ccc(-c3ccccc3CN(C)C)s2)c2cc(NC3CCOCC3)ncc2n1 (stereo not drawn) [Example 53, N4-[1-(5-{2-[(dimethylamino)methyl]phenyl}-2-thienyl)ethyl]-2-methyl-N6-(tetrahydro-2H-pyran-4-yl)pyrido[3,4-d]pyrimidine-4,6-diamine] | 239 |
| Cc1nc(N[C@H](C)c2cccc(Br)c2)c2cc(OCC3CC3)ncc2n1 [Example 75, N-[(1R)-1-(3-bromophenyl)ethyl]-6-(cyclopropylmethoxy)-2-methylpyrido[3,4-d]pyrimidin-4-amine] | 15200 |
| CNCc1ccccc1-c1ccc(C(C)Nc2nc(C)nc3cnc(Oc4ccc(N5CCCC5=O)cc4)cc23)s1 (stereo not drawn) [Example 38, 1-{4-[(2-methyl-4-{[1-(5-{2-[(methylamino)methyl]phenyl}thiophen-2-yl)ethyl]amino}pyrido[3,4-d]pyrimidin-6-yl)oxy]phenyl}pyrrolidin-2-one] | 269 |
| COc1cc2c(NC(C)c3cccc4c3cnn4C)nc(C)nc2cn1 (stereo not drawn) [Example 14, 6-methoxy-2-methyl-N-[1-(1-methyl-1H-indazol-4-yl)ethyl]pyrido[3,4-d]pyrimidin-4-amine] | 12600 |
| CCOc1cc2c(NC(C)c3cccc4sccc34)nc(C)nc2cn1 (stereo not drawn) [Example 3, N-[1-(1-benzothiophen-4-yl)ethyl]-6-ethoxy-2-methylpyrido[3,4-d]pyrimidin-4-amine] | 355 |
| Cc1nc(N[C@H](C)c2cccc(Br)c2)c2cc(NCCS(C)(=O)=O)ncc2n1 [Example 83] | 1090 |
| Cc1nc(N[C@H](C)c2cccc(Br)c2)c2cc(NCCn3ccnc3)ncc2n1 [Example 84, N4-[(1R)-1-(3-bromophenyl)ethyl]-N6-[2-(1H-imidazol-1-yl)ethyl]-2-methylpyrido[3,4-d]pyrimidine-4,6-diamine] | 1210 |
| Cc1nc(NC(C)c2ccc(-c3ccccc3CN(C)C)s2)c2cc(OCCO)ncc2n1 (stereo not drawn) [Example 74, 2-[(4-{[1-(5-{2-[(dimethylamino)methyl]phenyl}thiophen-2-yl)ethyl]amino}-2-methylpyrido[3,4-d]pyrimidin-6-yl)oxy]ethanol] | 107 |
| CSc1cc2c(NC(C)c3ccc(-c4ccccc4CN(C)C)s3)nc(C)nc2cn1 (stereo not drawn) [Example 59, N-[1-(5-{2-[(dimethylamino)methyl]phenyl}thiophen-2-yl)ethyl]-2-methyl-6-(methylsulfanyl)pyrido[3,4-d]pyrimidin-4-amine] | 67.7 |
| Cc1nc(N[C@H](C)c2cccc(Br)c2)c2nc(N(C)C)ncc2n1 [Example 21] | ≥ 40000 |
| Cc1nc(NC(C)c2ccc(-c3ccccc3CN(C)C)s2)c2cc(N3CC(NS(=O)(=O)Cc4ccccc4)C3)ncc2n1 (stereo not drawn) [Example 95, N-[1-(4-{[1-(5-{2-[(dimethylamino)methyl]phenyl}thiophen-2-yl)ethyl]amino}-2-methylpyrido[3,4-d]pyrimidin-6-yl)azetidin-3-yl]-1-phenylmethanesulfonamide] | 204 |
| Cc1nc(NC(C)c2ccc(-c3ccccc3CN(C)C)s2)c2cc(NCC3CCNC(=O)C3)ncc2n1 (stereo not drawn) [Example 86, 4-{[(4-{[1-(5-{2-[(dimethylamino)methyl]phenyl}thiophen-2-yl)ethyl]amino}-2-methylpyrido[3,4-d]pyrimidin-6-yl)amino]methyl}piperidin-2-one] | 144 |
| Cc1nc(NC(C)c2ccc(-c3ccccc3CN(C)C)s2)c2cc(N3CC(NC(=O)CCCn4c(-c5ccccn5)nc(C)c4C)C3)ncc2n1 (stereo not drawn) [Example 87, N-[1-(4-{[1-(5-{2-[(dimethylamino)methyl]phenyl}thiophen-2-yl)ethyl]amino}-2-methylpyrido[3,4-d]pyrimidin-6-yl)azetidin-3-yl]-4-[4,5-dimethyl-2-(pyridin-2-yl)-1H-imidazol-1-yl]butanamide] | 228 |
| CC(=O)NCCOc1cc2c(N[C@H](C)c3cccc(Br)c3)nc(C)nc2cn1 [Example 62, N-{2-[(4-{[(1R)-1-(3-bromophenyl)ethyl]amino}-2-methylpyrido[3,4-d]pyrimidin-6-yl)oxy]ethyl}acetamide] | 735 |
